The target in this test is GST-LC3B (Homo sapiens, UniProt Q9GZQ8). The experiment in a line: Surface plasmon resonance. As to conditions: read-out: kon (on-rate). It counts as binding.

Square brackets hold non-standard residues; d marks the D form. Peptide text beside a SMILES is read from it. * marks the point of attachment. FITC = O=C1OC2(c3ccc(O)cc3Oc3cc(O)ccc32)c2ccc(NC(=S)*)cc21; pS = N[C@@H](COP(=O)(O)O)C(=O)O; Ahx = NCCCCCC(=O)O

For `CC[C@H](C)[C@H](NC(=O)[C@H](CCC(=O)O)NC(=O)[C@@H](NC(=O)[C@H](Cc1ccccc1)NC(=O)[C@H](CO)NC(=O)[C@H](CC(=O)O)NC(=O)[C@H](CCC(=O)O)NC(=O)[C@H](CO)NC(=O)[C@H](CO)NC(=O)CNC(=O)[C@H](CO)NC(=O)[C@H](CO)NC(=O)[C@H](CC(N)=O)NC(=O)CCCCCNC(=S)Nc1ccc2c(c1)C(=O)OC21c2ccc(O)cc2Oc2cc(O)ccc21)C(C)C)C(=O)N[C@@H](CCCNC(=N)N)C(=O)N[C@@H](CCSC)C(=O)N[C@@H](C)C(=O)N[C@@H](CCC(=O)O)C(=O)O` [WT] ({FITC-Ahx}-NSSGSSEDSFVEIRMAE-OH), the kon (as a rule, the rate constant with which the complex forms) amounted to 550 M⁻¹ s⁻¹.
Turning to `CC[C@H](C)[C@H](NC(=O)[C@H](CCC(=O)O)NC(=O)[C@@H](NC(=O)[C@H](Cc1ccccc1)NC(=O)[C@H](COP(=O)(O)O)NC(=O)[C@H](CC(=O)O)NC(=O)[C@H](CCC(=O)O)NC(=O)[C@H](CO)NC(=O)[C@H](CO)NC(=O)CNC(=O)[C@H](CO)NC(=O)[C@H](CO)NC(=O)[C@H](CC(N)=O)NC(=O)CCCCCNC(=S)Nc1ccc2c(c1)C(=O)OC21c2ccc(O)cc2Oc2cc(O)ccc21)C(C)C)C(=O)N[C@@H](CCCNC(=N)N)C(=O)N[C@@H](CCSC)C(=O)N[C@@H](C)C(=O)N[C@@H](CCC(=O)O)C(=O)O` [pS177] ({FITC-Ahx}-NSSGSSED[pS]FVEIRMAE-OH), the on-rate constant (kon) was found to be 17800 M⁻¹ s⁻¹.

The values are drawn from publication PMC12368060 (Communications Biology, 2025).
